Data published in ChEMBL document CHEMBL1909046, “DrugMatrix in vitro pharmacology data”.

What was measured:
[1] = target: cGMP-specific 3',5'-cyclic phosphodiesterase (Homo sapiens, UniProt O76074); assay: DRUGMATRIX: Phosphodiesterase PDE5 enzyme inhibition (substrate: [3H]cGMP + cGMP); format: tissue-based, Platelet; conditions: Not Active = under 50% inhibition at 10 µM
[2] = target: T1, 3-hydroxy-3-methylglutaryl-coenzyme A reductase (Homo sapiens, UniProt P04035); parameters: species or system Escherichia coli;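 note: enzyme inhibition assay of HMG-CoA reductase using radiolabeled [14C]HMG-CoA as substrate; in other assays of this panel Not Active means under 50% inhibition at 10 µM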
T1 sequence (P04035 whole entry): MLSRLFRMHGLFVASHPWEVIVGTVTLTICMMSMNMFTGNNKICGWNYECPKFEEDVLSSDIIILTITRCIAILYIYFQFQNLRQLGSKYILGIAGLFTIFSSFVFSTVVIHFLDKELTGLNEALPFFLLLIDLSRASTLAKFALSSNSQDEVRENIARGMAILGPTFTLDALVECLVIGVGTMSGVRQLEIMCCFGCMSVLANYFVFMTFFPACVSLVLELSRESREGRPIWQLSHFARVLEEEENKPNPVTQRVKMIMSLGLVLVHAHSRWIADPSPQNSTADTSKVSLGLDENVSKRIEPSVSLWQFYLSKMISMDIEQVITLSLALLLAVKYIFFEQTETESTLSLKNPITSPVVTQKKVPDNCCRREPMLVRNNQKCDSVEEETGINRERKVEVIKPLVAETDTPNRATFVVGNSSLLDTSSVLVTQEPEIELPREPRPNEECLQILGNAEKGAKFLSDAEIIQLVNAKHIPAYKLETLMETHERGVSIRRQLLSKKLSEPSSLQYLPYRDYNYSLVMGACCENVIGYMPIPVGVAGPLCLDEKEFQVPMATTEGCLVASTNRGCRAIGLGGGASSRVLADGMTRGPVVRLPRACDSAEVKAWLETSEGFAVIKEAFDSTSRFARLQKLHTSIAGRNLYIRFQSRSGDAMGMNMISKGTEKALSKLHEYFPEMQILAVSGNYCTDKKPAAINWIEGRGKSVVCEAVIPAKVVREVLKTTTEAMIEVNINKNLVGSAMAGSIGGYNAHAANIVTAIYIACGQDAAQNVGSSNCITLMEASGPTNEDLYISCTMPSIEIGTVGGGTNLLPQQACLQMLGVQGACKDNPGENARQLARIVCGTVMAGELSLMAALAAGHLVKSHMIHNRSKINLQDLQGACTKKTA

Vasopressin V1a receptor = Vasopressin V1a receptor (Homo sapiens, UniProt P37288); format: cell membranes, Membrane; conditions: hek293; note: in other assays of this panel Not Active means under 50% inhibition at 10 µM
Chain of Vasopressin V1a receptor (P37288 whole entry): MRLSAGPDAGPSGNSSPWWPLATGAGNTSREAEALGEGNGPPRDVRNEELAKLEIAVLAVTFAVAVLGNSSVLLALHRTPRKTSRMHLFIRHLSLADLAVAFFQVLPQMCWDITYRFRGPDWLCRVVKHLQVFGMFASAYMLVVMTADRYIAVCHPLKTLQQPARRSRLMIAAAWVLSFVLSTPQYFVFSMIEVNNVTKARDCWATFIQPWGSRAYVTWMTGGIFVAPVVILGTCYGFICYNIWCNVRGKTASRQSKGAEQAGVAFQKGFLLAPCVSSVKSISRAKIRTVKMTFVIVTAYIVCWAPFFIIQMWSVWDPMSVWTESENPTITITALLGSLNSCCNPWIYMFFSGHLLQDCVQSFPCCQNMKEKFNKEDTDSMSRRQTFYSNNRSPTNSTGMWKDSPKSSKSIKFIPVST

[3] = target: T2, C-X-C chemokine receptor type 2 (Homo sapiens, UniProt P25025); format: cell membranes, Membrane; conditions: cho-k1; note: in other assays of this panel Not Active means under 50% inhibition at 10 µM
T2 sequence (P25025 whole entry): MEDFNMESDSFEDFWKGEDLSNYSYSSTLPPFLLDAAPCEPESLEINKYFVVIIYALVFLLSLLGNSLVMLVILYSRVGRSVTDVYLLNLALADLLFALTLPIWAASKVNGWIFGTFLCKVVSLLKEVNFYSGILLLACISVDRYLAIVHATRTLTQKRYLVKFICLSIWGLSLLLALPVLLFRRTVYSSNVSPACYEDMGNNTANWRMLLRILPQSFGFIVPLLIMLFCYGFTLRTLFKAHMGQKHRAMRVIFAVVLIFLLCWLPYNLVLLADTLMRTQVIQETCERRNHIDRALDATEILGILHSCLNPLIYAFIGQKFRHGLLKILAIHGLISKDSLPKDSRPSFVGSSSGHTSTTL

Neutrophil elastase = target: T3, Neutrophil elastase (Homo sapiens, UniProt P08246); format: tissue-based;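 note: inhibition of neutrophil elastase enzyme activity, measured with a p-nitroanilide-linked peptide substrate; in other assays of this panel Not Active means under 50% inhibition at 10 µM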
T3 sequence (P08246 whole entry): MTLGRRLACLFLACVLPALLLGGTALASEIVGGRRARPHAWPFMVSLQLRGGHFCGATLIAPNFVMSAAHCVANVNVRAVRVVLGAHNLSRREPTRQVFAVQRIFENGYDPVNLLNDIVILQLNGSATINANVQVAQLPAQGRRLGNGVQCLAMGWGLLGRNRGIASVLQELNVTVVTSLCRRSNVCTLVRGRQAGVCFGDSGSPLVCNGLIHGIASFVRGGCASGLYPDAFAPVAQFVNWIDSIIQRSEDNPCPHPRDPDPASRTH

[4] = target: T4, Amine oxidase [flavin-containing] A (Homo sapiens, UniProt P21397); assay: DRUGMATRIX: Monoamine Oxidase MAO-A enzyme inhibition (substrate: Kynuramine); parameters: species or system BTI-TN-5B1-4; conditions: bti-tn-5b1-4; Not Active = under 50% inhibition at 10 µM
T4 sequence (P21397 whole entry): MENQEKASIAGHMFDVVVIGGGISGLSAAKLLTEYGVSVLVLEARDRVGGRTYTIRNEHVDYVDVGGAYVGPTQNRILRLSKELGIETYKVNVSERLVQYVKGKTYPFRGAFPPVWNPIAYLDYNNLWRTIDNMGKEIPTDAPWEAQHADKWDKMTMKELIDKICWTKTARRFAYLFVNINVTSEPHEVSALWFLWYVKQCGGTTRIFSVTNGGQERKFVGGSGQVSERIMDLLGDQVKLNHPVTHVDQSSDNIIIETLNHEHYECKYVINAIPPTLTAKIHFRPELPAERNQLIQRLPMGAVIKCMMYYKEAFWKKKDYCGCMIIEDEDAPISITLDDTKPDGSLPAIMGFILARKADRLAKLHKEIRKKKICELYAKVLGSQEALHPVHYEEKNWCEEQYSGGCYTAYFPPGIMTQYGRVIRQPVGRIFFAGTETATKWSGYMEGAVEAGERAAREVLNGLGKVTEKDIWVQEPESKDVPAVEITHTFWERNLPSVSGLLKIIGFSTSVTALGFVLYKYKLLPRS

[5] = target: T5, Muscarinic acetylcholine receptor M4 (Homo sapiens, UniProt P08173); format: cell membranes, CHO-K1, Membrane; conditions: for Ki: read-out: Ki
T5 sequence (P08173 whole entry): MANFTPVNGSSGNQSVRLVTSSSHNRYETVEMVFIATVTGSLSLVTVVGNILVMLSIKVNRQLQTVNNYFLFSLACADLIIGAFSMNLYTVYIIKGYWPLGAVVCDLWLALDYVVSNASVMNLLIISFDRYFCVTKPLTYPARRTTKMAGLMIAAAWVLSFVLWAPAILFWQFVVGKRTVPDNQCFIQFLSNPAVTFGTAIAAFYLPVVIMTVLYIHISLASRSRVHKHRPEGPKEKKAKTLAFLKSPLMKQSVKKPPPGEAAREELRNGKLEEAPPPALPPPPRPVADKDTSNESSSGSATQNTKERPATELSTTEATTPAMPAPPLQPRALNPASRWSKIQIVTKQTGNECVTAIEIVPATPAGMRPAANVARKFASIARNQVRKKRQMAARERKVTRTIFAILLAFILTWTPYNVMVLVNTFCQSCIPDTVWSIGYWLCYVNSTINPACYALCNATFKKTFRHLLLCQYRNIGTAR

SMILES | IC50 ([1]; platelet) | IC50 [2] | IC50 (Vasopressin V1a receptor) | IC50 [3] | IC50 (Neutrophil elastase) | IC50 [4] | IC50 ([5]; cho-k1) | IC50 ([5]; read-out: IC50) | Ki [5] | IC50 ([1]; read-out: IC50)
CC(=N)S [THIOACETAMIDE] | Not Active | Not Active | Not Active | Not Active | Not Active | Not Active | Not Active |  |  | 
O=C1C[C@@H]2OCC=C3CN4CC[C@]56c7ccccc7N1[C@H]5[C@H]2[C@H]3C[C@H]46 [STRYCHNINE] | Not Active | Not Active | Not Active | Not Active | Not Active | Not Active | Not Active |  |  | 
Nc1ccc(S(=O)(=O)NC(=O)c2ccccc2)cc1 [SULFABENZAMIDE] | Not Active | Not Active | Not Active | Not Active | Not Active | Not Active | Not Active |  |  | 
CC(=O)OCC(COC(C)=O)OC(C)=O [TRIACETIN] | Not Active | Not Active | Not Active | Not Active | Not Active | Not Active | Not Active |  |  | 
CCCCC(=O)N(Cc1ccc(-c2ccccc2-c2nnn[nH]2)cc1)[C@H](C(=O)O)C(C)C | Not Active | Not Active | Not Active | Not Active | Not Active | Not Active | Not Active |  |  | 
OCCOCCN1CCN(C2=Nc3ccccc3Sc3ccccc32)CC1 [QUETIAPINE] | Not Active | Not Active | Not Active | Not Active | Not Active | Not Active |  |  |  | 
CC1CCC(NC(=O)N(CCCl)N=O)CC1 (stereo not drawn) [SEMUSTINE] | Not Active | Not Active | Not Active | Not Active | Not Active | Not Active | Not Active |  |  | 
Oc1ccc2c3c1O[C@H]1[C@@H](O)CC[C@@]4(O)[C@@H](C2)N(CC2CCC2)CC[C@]314 [NALBUPHINE] | Not Active | Not Active | Not Active | Not Active | Not Active | Not Active | Not Active |  |  | 
Clc1ccc(COC(Cn2ccnc2)c2ccc(Cl)cc2Cl)c(Cl)c1 (stereo not drawn) [MICONAZOLE] | Not Active | Not Active | Not Active | Not Active | Not Active | Not Active |  | 3.2 µM | 446 nM | 
O=C(O)CCCCC1CCSS1 (stereo not drawn) [LIPOIC ACID, ALPHA] | Not Active | Not Active | Not Active | Not Active | Not Active | Not Active | Not Active |  |  | 
CCCCCCCCNC(C)C(O)c1ccc(SC(C)C)cc1 (stereo not drawn) [SULOCTIDIL] | Not Active | Not Active | Not Active | Not Active | Not Active | Not Active |  | 4.56 µM | 636 nM | 
COC(=O)[C@H]1[C@H]2C[C@@H]3c4[nH]c5cc(OC)ccc5c4CCN3C[C@H]2C[C@@H](OC(=O)c2cc(OC)c(OC)c(OC)c2)[C@@H]1OC [RESERPINE] | Not Active | Not Active | Not Active | Not Active | Not Active | Not Active | Not Active |  |  | 
O=c1[nH]c(=O)n(C2CCCO2)cc1F (stereo not drawn) [TEGAFUR] | Not Active | Not Active | Not Active | Not Active | Not Active | Not Active | Not Active |  |  | 
CC(C)NC[C@H](O)COc1cccc2ccccc12 [LEVOPROPRANOLOL] | Not Active | Not Active | Not Active | Not Active | Not Active | Not Active | Not Active |  |  | 
CN1[C@@H]2CC[C@H]1C[C@@H](OC(c1ccccc1)c1ccccc1)C2 [BENZTROPINE] | Not Active | Not Active | Not Active | Not Active | Not Active | Not Active |  |  |  | 
Cc1ccc(C(=O)c2ccc(CC(=O)O)n2C)cc1 [TOLMETIN] | Not Active | Not Active | Not Active | Not Active | Not Active | Not Active | Not Active |  |  | 
C[S+]([O-])c1ccc(-c2nc(-c3ccncc3)c(-c3ccc(F)cc3)[nH]2)cc1 (stereo not drawn) [SB-203580] |  | Not Active | Not Active | Not Active | Not Active | Not Active | Not Active |  |  | 11.5 µM
CN1CCN(C2=Nc3cc(Cl)ccc3Nc3ccccc32)CC1 [CLOZAPINE] | Not Active | Not Active | Not Active | Not Active | Not Active | Not Active |  |  |  | 
C[C@]12C=CC(=O)C=C1CC[C@@H]1[C@@H]2C(=O)C[C@@]2(C)[C@H]1CC[C@]2(O)C(=O)CO [PREDNISONE] | Not Active | Not Active | Not Active | Not Active | Not Active | Not Active | Not Active |  |  | 
CC(C)NC[C@@H](O)COc1cccc2ccccc12 [DEXPROPRANOLOL] | Not Active | Not Active | Not Active | Not Active | Not Active | Not Active | Not Active |  |  | 
CN1CCN(CCCN2c3ccccc3Sc3ccc(C(F)(F)F)cc32)CC1 [TRIFLUOPERAZINE] | Not Active | Not Active | Not Active | Not Active | Not Active | Not Active | Not Active |  |  | 
O=C(O)COc1ccc(C(=O)c2cccs2)c(Cl)c1Cl | Not Active | Not Active | Not Active | Not Active | Not Active | Not Active | Not Active |  |  | 
